Molecular target: T1, recombinant MARK3 enzyme (Homo sapiens, UniProt P27448)
T1 construct: purchased University of Dundee
Experiment: MARK 3 Assay (HTRF, Cdc25C biotinylated peptide substrate)
Assay type: biochemical
Details: MARK3, 10 μM ATP, 1 μM peptide substrate, 2 hours at 25° C.
Procedure: MARK3 activity was assayed in vitro using a Cdc25C biotinylated peptide substrate (Cell Signalling Technologies). The phosphopeptide product was quantitated using a Homogenous Time-Resolved Fluorescence (HTRF) assay system (Park et al., 1999, Anal. Biochem. 269:94-104). The reaction mixture contained 50 mM HEPES/Tris-HCl, pH 7.4; […], 5 mM MgCl2, 0.2 mM NaVO4, 5 mM β-glycerol phosphate, 0.1% Tween-20, 2 mM dithiothreitol, 0.1% BSA, 10 μM ATP, 1 μM peptide substrate, and 10 nM recombinant MARK3 enzyme (University of Dundee) in a final volume of 12 μL. The buffer additionally contained protease inhibitor cocktail (Roche EDTA-free, 1 tab per 50 ml). The kinase reaction was incubated for 2 hours at 25° C., and then terminated with 3 μl Stop/Detection Buffer (50 mM HEPES, pH 7.0, 16.6 mM EDTA, 0.5M KF, 0.1% Tween-20, 0.1% BSA, 2 μg/ml SLX^ent 665 (CISBIO), and 2 μg/mL Eu^3+ cryptate label antibody (CISBIO)). The reaction was allowed to equilibrate overnight at 0° C., and relative fluorescent units were read on an HTRF enabled plate reader (e.g. TECAN GENios Pro).
Inhibitor compounds were assayed in the reaction described above to determine compound IC50s. Aliquots of compound dissolved in DMSO were added to the reaction wells in a third-log dilution series covering a range of 1 nM to 10 μM. Relative phospho substrate formation, read as HTRF fluorescence units, was measured over the range of compound concentrations and a titration curve generated.

T1 sequence (P27448 whole entry, species assumed): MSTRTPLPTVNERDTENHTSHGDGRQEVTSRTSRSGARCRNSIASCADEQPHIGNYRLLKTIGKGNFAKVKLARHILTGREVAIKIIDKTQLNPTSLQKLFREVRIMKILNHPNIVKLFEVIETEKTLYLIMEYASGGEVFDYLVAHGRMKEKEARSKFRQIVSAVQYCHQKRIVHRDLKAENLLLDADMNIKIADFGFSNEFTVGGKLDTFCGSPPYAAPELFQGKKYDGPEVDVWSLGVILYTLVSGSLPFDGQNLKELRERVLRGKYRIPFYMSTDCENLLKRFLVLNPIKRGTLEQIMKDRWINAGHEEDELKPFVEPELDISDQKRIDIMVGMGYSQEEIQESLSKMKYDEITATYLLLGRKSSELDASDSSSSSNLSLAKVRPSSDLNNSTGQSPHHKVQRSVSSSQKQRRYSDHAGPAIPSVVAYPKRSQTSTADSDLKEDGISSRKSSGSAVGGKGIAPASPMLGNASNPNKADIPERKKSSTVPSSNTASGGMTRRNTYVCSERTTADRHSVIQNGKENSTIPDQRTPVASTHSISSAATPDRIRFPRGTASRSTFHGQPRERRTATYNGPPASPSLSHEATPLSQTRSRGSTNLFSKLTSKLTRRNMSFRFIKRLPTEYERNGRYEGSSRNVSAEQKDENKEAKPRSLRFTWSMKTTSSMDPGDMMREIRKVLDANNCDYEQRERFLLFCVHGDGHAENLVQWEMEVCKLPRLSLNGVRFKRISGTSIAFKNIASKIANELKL

Compound | IC50
CCc1sc(C(=O)N[C@@H]2[C@@H](N)CCCC2(F)F)cc1-c1cnn2cc(F)ccc12 [Example 170, N-[(1R,6S)-6-Amino-2,2-difluorocyclohexyl]-5-ethyl-4-(6-fluoropyrazolo[1,5-a]pyridin-3-yl)thiophene-2-carboxamide] | 29 nM
C=C(C)c1ccc2c(-c3csc(C(=O)N[C@@H]4[C@@H](N)CCCC4(F)F)n3)cnn2c1 [Example 157, N-[(1R,6S)-6-Amino-2,2-difluorocyclohexyl]-4-(6-isopropenylpyrazolo[1,5-a]pyridin-3-yl)-1,3-thiazole-2-carboxamide] | 0.5 nM
N[C@H]1CCCC(F)(F)[C@@H]1NC(=O)c1nc(-c2cnn3ccccc23)c(Cl)s1 [Example 7, N-[(1R,6S)-6-Amino-2,2-difluorocyclohexyl]-5-chloro-4-pyrazolo[1,5-a]pyridin-3-yl-1,3-thiazole-2-carboxamide] | 4 nM
Cc1sc(C(=O)NC(CN)c2ccccc2)nc1-c1cnn2cc(-c3cnn(C)c3)ccc12 (stereo not drawn) [Example 182, N-(2-Amino-1-phenylethyl)-5-methyl-4-[6-(1-methyl-1H-pyrazol-4-yl)pyrazolo[1,5-a]pyridin-3-yl]-1,3-thiazole-2-carboxamide] | 13 nM
N[C@@H]1CCCC(F)(F)[C@@H]1NC(=O)c1nc(-c2cnn3cc(-c4ccc(F)cc4)ccc23)c(Cl)s1 [Example 1] | 21 nM
N[C@@H]1CCCC(F)(F)[C@@H]1NC(=O)c1cc(-c2cnn3ccccc23)c(Cl)s1 [Example 206, N-[(1R,6R)-6-amino-2,2-difluorocyclohexyl]-5-chloro-4-pyrazolo[1,5-a]pyridin-3-yl-2-thiophenecarboxamide] | 19 nM
